{"source": "ChEMBL document CHEMBL3351920", "about": "“Biased and unbiased strategies to identify biologically active small molecules” (Bioorg Med Chem, 2014)", "key": {"[1]": {"target": "RAC-alpha serine/threonine-protein kinase (Homo sapiens, UniProt P31749)", "sequence (P31749 whole entry)": "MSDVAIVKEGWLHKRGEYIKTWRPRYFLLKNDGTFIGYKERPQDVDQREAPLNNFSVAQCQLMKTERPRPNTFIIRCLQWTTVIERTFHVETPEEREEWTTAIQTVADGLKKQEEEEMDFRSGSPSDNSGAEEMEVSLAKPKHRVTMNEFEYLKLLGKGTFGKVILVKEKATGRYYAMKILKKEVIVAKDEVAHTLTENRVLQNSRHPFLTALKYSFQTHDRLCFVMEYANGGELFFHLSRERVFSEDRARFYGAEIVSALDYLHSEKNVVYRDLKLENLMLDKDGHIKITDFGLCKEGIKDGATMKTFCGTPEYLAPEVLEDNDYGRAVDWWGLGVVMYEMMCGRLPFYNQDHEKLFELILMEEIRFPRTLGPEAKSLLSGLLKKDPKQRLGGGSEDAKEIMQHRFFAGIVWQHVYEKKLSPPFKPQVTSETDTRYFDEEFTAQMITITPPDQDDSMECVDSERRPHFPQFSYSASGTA", "assay": "Inhibition of Akt1 (unknown origin)"}, "[2]": {"assay": "Binding affinity to double strand DNA (unknown origin)"}, "[3]": {"assay": "Binding affinity to H-telo G-quadruplex DNA (unknown origin)"}, "[4]": {"target": "T1, Glutathione S-transferase Mu 1 (Mus musculus, UniProt P10649)", "T1 sequence (P10649 whole entry)": "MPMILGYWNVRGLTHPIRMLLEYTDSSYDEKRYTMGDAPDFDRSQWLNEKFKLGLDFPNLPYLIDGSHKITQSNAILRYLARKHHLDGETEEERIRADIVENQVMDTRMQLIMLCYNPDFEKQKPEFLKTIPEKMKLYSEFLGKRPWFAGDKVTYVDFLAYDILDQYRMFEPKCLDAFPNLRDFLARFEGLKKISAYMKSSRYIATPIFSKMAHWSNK", "assay": "Inhibition of mouse GSTM1-1"}, "[5]": {"assay": "Inhibition of CUG-RNA/MBLN1 (unknown origin) interaction"}, "[6]": {"target": "Cyclin-dependent kinase 1 (Homo sapiens, UniProt P06493)", "sequence (P06493 whole entry)": "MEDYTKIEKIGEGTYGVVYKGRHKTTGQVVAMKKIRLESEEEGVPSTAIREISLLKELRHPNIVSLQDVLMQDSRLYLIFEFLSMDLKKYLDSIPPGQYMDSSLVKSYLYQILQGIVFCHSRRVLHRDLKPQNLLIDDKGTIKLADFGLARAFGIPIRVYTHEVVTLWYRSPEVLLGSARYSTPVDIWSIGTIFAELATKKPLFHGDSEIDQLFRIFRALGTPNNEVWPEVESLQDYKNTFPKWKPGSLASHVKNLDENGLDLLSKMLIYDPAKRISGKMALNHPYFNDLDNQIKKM", "assay": "Inhibition of CDK1 (unknown origin)"}, "Acetylcholinesterase": {"target": "Acetylcholinesterase (Homo sapiens, UniProt P22303)", "sequence (P22303 whole entry)": "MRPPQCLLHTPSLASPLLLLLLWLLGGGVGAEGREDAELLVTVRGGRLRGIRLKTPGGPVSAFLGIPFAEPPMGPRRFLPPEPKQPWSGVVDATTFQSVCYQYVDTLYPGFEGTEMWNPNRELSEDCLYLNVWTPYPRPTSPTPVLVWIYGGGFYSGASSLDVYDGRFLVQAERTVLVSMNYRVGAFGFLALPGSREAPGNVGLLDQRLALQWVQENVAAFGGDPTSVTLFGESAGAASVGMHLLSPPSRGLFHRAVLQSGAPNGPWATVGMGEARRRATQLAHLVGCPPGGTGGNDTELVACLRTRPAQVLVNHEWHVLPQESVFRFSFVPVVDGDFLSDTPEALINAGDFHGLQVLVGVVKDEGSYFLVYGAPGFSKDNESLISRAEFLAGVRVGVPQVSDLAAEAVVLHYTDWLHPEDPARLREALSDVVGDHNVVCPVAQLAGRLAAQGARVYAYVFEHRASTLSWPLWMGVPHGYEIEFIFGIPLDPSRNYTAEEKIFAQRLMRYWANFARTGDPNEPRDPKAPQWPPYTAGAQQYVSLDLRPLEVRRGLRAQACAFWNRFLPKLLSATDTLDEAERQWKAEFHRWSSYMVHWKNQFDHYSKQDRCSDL", "assay": "Inhibition of acetylcholine esterase (unknown origin)"}, "Beta-casein": {"target": "T2, Beta-casein (Bos taurus, UniProt P02666)", "T2 sequence (P02666 whole entry)": "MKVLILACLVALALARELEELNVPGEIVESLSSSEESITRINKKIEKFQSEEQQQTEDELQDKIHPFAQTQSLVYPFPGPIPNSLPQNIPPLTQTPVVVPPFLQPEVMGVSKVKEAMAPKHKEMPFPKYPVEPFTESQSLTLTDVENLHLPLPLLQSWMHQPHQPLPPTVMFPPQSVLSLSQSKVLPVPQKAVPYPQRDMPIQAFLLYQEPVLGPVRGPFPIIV", "assay": "Binding affinity to bovine beta-casein A1"}, "Bcl-2-like protein 10": {"target": "T3, Bcl-2-like protein 10 (Homo sapiens, UniProt Q9HD36)", "T3 sequence (Q9HD36 whole entry)": "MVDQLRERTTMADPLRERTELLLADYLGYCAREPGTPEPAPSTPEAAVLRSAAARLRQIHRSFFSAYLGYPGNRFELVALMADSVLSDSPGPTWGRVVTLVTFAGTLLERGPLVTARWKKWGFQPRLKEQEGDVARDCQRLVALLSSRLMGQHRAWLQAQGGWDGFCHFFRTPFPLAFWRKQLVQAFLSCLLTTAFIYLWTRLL", "assay": "Binding affinity to Bcl-b (unknown origin)"}, "[7]": {"assay": "Binding affinity to G-quadruplex RNA (unknown origin)"}}}
{"smiles": "CC[C@H](C)[C@H](NC(=O)[C@H](CCCNC(=N)N)NC(=O)[C@H](CCC(=O)O)NC(=O)[C@H](Cc1cnc[nH]1)NC(=O)[C@H](CCCNC(=N)N)NC(=O)C(CCCCCCCCn1cc(CCCC(=O)NC(CCCCCCCCn2cc(C[C@H](NC(C)=O)C(=O)N[C@@H](Cc3ccccc3)C(=O)N[C@@H](Cc3c[nH]c4ccccc34)C(=O)N[C@@H](Cc3ccccc3)C(=O)N[C@@H](CC(C)C)C(=O)N[C@@H](CCCNC(=N)N)C(=O)NCC(N)=O)nn2)C(=O)N[C@H](C(=O)N[C@@H](Cc2ccccc2)C(=O)N[C@@H](Cc2ccc(O)cc2)C(=O)N[C@@H](CCCNC(=N)N)C(=O)N[C@@H](CC(C)C)C(=O)NCC(=O)N[C@@H](Cc2ccc(O)cc2)C(=O)NCCNC(=O)CCCC[C@H]2SC[C@H]3NC(=O)N[C@H]32)C(C)C)nn1)NC(C)=O)C(N)=O", "note": "(stereo partly drawn)", "values": [{"measurement": "Kd", "setting": "[1]", "value": 200, "unit": "nM"}]}
{"smiles": "NCCOc1cc(NC(=O)c2cc(OCc3cn([C@H]4O[C@H](CO)[C@@H](O)[C@H](O)[C@H]4O)nn3)cc(C(=O)Nc3cc(OCCN)c4ccccc4n3)n2)nc2ccccc12", "values": [{"measurement": "deltaTm", "setting": "[2]", "value": 0, "unit": "K"}, {"measurement": "deltaTm", "setting": "[3]", "value": 30, "unit": "K"}]}
{"smiles": "C[C@H](NC(=O)c1cccc(C(=O)N[C@@H](C)C(=O)N/N=C/c2ccc(SC[C@H](NC(=O)CC[C@H](N)C(=O)O)C(=O)NCC(=O)O)c([N+](=O)[O-])c2)c1)C(=O)N/N=C/c1ccc(SC[C@H](NC(=O)CC[C@H](N)C(=O)O)C(=O)NCC(=O)O)c([N+](=O)[O-])c1", "values": [{"measurement": "IC50", "setting": "[4]", "value": 50, "unit": "nM"}]}
{"smiles": "CCc1nc2ccccc2cc1C(=O)N1CCC[C@H]1C(=O)N[C@H](CSSC[C@@H](NC(=O)[C@@H]1CCCN1C(=O)c1cc2ccccc2nc1CC)C(=O)N[C@@H](CCCCN)C(=O)NCCCN)C(=O)N[C@@H](CCCCN)C(=O)NCCCN", "values": [{"measurement": "Ki", "setting": "[5]", "value": 3600, "unit": "nM"}]}
{"smiles": "O=C(Nc1cc(OCCN2CCCC2)c2ccccc2n1)c1cc(OCc2cn([C@H]3O[C@H](CO)[C@@H](O)[C@H](O)[C@H]3O)nn2)cc(C(=O)Nc2cc(OCCN3CCCC3)c3ccccc3n2)n1", "values": [{"measurement": "deltaTm", "setting": "[2]", "value": 0.1, "unit": "K"}, {"measurement": "deltaTm", "setting": "[3]", "value": 28, "unit": "K"}]}
{"smiles": "c1ccc2[nH]c(-c3cc[nH]n3)nc2c1", "values": [{"measurement": "IC50", "setting": "[6]", "value": 28000, "unit": "nM"}]}
{"smiles": "O=C(C[n+]1ccccc1)N/N=C/c1ccc(/C=N/NC(=O)C[n+]2ccccc2)cc1", "values": [{"measurement": "IC50", "setting": "Acetylcholinesterase", "value": 2.3, "unit": "nM"}]}
{"smiles": "C[N+](C)(C)CCCCCCCCCC[N+](C)(C)C", "note": "[DECAMETHONIUM BROMIDE]", "values": [{"measurement": "IC50", "setting": "Acetylcholinesterase", "value": 1000, "unit": "nM"}]}
{"smiles": "CN(C)CC[C@H](CSc1ccccc1)Nc1ccc(S(=O)(=O)NC(=O)c2ccc(N3CCN(Cc4ccccc4-c4ccc(Cl)cc4)CC3)cc2)cc1[N+](=O)[O-]", "note": "[ABT 737]", "values": [{"measurement": "Ki", "setting": "Beta-casein", "value": "> 1", "unit": "nM"}, {"measurement": "Ki", "setting": "Bcl-2-like protein 10", "value": "> 1", "unit": "nM"}]}
{"smiles": "NCCOc1cc(NC(=O)c2cc(OCc3cn(CCC(=O)O)nn3)cc(C(=O)Nc3cc(OCCN)c4ccccc4n3)n2)nc2ccccc12", "values": [{"measurement": "deltaTm", "setting": "[7]", "value": 20.7, "unit": "K"}]}
